{"source": "patent US20060148725A1", "about": "“Selective 11beta HSD inhibitors and methods of use thereof” (The Miriam Hospital, priority 2001, published 2006)", "key": {"[1]": {"target": "11β-HSD1 Dehydrogenase (Rattus norvegicus, UniProt P16232)", "sequence (P16232 whole entry)": "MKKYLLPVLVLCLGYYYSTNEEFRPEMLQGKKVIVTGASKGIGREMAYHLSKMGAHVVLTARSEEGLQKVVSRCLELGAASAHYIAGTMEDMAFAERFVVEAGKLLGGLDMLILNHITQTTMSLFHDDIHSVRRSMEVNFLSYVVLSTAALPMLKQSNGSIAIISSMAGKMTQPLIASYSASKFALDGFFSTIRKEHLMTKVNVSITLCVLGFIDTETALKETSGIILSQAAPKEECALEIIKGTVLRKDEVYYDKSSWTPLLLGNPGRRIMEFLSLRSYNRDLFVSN", "experiment": "Inhibition of 11β-HSD1 dehydrogenase activity (Table 1)", "assay_type": "biochemical", "settings": "inhibition class in words"}, "[2]": {"target": "11β-HSD1 Reductase (Rattus norvegicus, UniProt P16232)", "sequence (P16232 whole entry)": "as above", "experiment": "Inhibition of 11β-HSD1 reductase activity (Table 1)", "settings": "inhibition class in words"}, "[3]": {"target": "T1, 11β-HSD2 Dehydrogenase (Ovis aries, UniProt P50168)", "T1 construct": "using 50 nM corticosterone substrate concentration and sheep kidney microsomes; from tissue; host or cells: sheep kidney microsomes", "T1 sequence (P50168 1-427)": "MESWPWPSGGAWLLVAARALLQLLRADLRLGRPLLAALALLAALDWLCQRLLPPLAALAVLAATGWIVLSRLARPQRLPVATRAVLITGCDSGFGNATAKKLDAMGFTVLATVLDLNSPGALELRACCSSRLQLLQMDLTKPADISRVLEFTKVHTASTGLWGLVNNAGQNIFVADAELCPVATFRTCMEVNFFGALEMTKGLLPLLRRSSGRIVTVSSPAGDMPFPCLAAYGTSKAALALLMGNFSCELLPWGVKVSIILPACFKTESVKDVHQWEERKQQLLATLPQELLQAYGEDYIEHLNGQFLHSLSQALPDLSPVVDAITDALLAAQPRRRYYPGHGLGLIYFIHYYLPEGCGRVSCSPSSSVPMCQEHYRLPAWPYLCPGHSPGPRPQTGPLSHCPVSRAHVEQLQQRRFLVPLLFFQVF", "experiment": "Inhibition of 11β-HSD2 dehydrogenase activity (Table 1)", "assay_type": "biochemical, sheep", "settings": "inhibition class in words"}, "[4]": {"test_system": "rat aortic rings", "settings": "aortic rings incubated with corticosterone; previously demonstrated; cited from earlier work"}}, "data": [{"compound": "C[C@]12CC[C@H](O)C[C@@H]1CC[C@@H]1[C@@H]2C(=O)C[C@]2(C)C(=O)CC[C@@H]12", "note": "[3α,5α-reduced-11-keto-androstenedione]", "values": [{"measurement": "11β-HSD1 Dehydrogenase", "setting": "[1]", "value": "No Inhibition"}, {"measurement": "11β-HSD1 Reductase", "setting": "[2]", "value": "Selective Inhibitor"}]}, {"compound": "C[C@]12CC[C@H](O)C[C@@H]1CC[C@H]1[C@@H]3CC[C@H](C(=O)CO)[C@@]3(C)CC(=O)[C@@H]12", "note": "[3α,5α-tetrahydro-11-dehydro-corticosterone]", "values": [{"measurement": "11β-HSD1 Dehydrogenase", "setting": "[1]", "value": "No Inhibition"}, {"measurement": "11β-HSD2 Dehydrogenase", "setting": "[3]", "value": "Potent Inhibitor"}, {"measurement": "11β-HSD1 Reductase", "setting": "[2]", "value": "Potent Inhibitor"}]}, {"compound": "C[C@]12CC[C@H](O)C[C@@H]1CC[C@@H]1[C@@H]2[C@@H](O)C[C@]2(C)[C@@H](C(=O)CO)CC[C@@H]12", "note": "[3α,5α-reduced-corticosterone]", "values": [{"measurement": "11β-HSD1 Dehydrogenase", "setting": "[1]", "value": "Potent Inhibitor"}, {"measurement": "11β-HSD2 Dehydrogenase", "setting": "[3]", "value": "Potent Inhibitor"}, {"measurement": "11β-HSD1 Reductase", "setting": "[2]", "value": "No Inhibition"}]}, {"compound": "C[C@]12C[C@H](O)[C@H]3[C@@H](CCC4=CC(=O)CC[C@@]43C)[C@@H]1CC[C@@H]2C(=O)CO", "note": "[corticosterone]", "values": [{"measurement": "effect of the steroid on contractile responses to graded phenylephrine compared to controls", "setting": "[4]", "value": "amplified contractile responses"}]}, {"compound": "C[C@]12CC[C@H](O)C[C@@H]1CC[C@H]1[C@@H]3CC[C@H](O)[C@@]3(C)CC(=O)[C@@H]12", "note": "[3α,5α-reduced-11-keto-testosterone]", "values": [{"measurement": "11β-HSD1 Dehydrogenase", "setting": "[1]", "value": "No Inhibition"}, {"measurement": "11β-HSD1 Reductase", "setting": "[2]", "value": "Selective Inhibitor"}]}, {"compound": "CC(=O)[C@H]1CC[C@H]2[C@@H]3CC[C@H]4C[C@@H](O)CC[C@]4(C)[C@H]3[C@@H](O)C[C@]12C", "note": "[3α,5α-reduced-11β-OH-progesterone]", "values": [{"measurement": "11β-HSD1 Dehydrogenase", "setting": "[1]", "value": "Potent Inhibitor (Non-Selective)"}, {"measurement": "11β-HSD2 Dehydrogenase", "setting": "[3]", "value": "Potent Inhibitor (Non-Selective)"}, {"measurement": "11β-HSD1 Reductase", "setting": "[2]", "value": "No Inhibition"}]}, {"compound": "C[C@]12CC(=O)[C@H]3[C@@H](CCC4=CC(=O)CC[C@@]43C)[C@@H]1CC[C@@H]2O", "note": "[11-Keto-testosterone]", "values": [{"measurement": "11β-HSD1 Dehydrogenase", "setting": "[1]", "value": "No Inhibition"}, {"measurement": "11β-HSD2 Dehydrogenase", "setting": "[3]", "value": "No Inhibition"}, {"measurement": "11β-HSD1 Reductase", "setting": "[2]", "value": "Selective Inhibitor"}]}, {"compound": "C[C@]12CCC(=O)C=C1CC[C@@H]1[C@H]2C(=O)C[C@]2(C)C(=O)CC[C@H]12", "note": "(stereo in doubt) [11-Keto-androstenedione]", "values": [{"measurement": "11β-HSD1 Dehydrogenase", "setting": "[1]", "value": "No Inhibition"}, {"measurement": "11β-HSD2 Dehydrogenase", "setting": "[3]", "value": "No Inhibition"}, {"measurement": "11β-HSD1 Reductase", "setting": "[2]", "value": "Selective Inhibitor"}]}, {"compound": "CC(=O)[C@H]1CC[C@@H]2[C@@H]3CCC4=CC(=O)CC[C@]4(C)[C@@H]3C(=O)C[C@]12C", "note": "[11-Keto-progesterone]", "values": [{"measurement": "11β-HSD1 Dehydrogenase", "setting": "[1]", "value": "No Inhibition"}, {"measurement": "11β-HSD2 Dehydrogenase", "setting": "[3]", "value": "Potent Inhibitor"}, {"measurement": "11β-HSD1 Reductase", "setting": "[2]", "value": "Selective Inhibitor"}]}, {"compound": "C[C@]12CC[C@H](O)C[C@H]1CC[C@@H]1[C@H]2[C@@H](O)C[C@@]2(C)[C@@H]1CC[C@@H]2O", "note": "[3α,5β-reduced-11β-OH-testosterone]", "values": [{"measurement": "11β-HSD1 Dehydrogenase", "setting": "[1]", "value": "Moderate Inhibitor"}, {"measurement": "11β-HSD2 Dehydrogenase", "setting": "[3]", "value": "No Inhibition"}, {"measurement": "11β-HSD1 Reductase", "setting": "[2]", "value": "No Inhibition"}]}, {"compound": "CC(=O)[C@H]1CC[C@@H]2[C@@H]3CC[C@@H]4C[C@@H](O)CC[C@]4(C)[C@@H]3[C@@H](O)C[C@]12C", "note": "[3α,5β-reduced-11β-OH-progesterone]", "values": [{"measurement": "11β-HSD1 Dehydrogenase", "setting": "[1]", "value": "Moderate Inhibitor"}, {"measurement": "11β-HSD2 Dehydrogenase", "setting": "[3]", "value": "No Inhibition"}, {"measurement": "11β-HSD1 Reductase", "setting": "[2]", "value": "No Inhibition"}]}, {"compound": "C[C@]12CCC(=O)C[C@@H]1CC[C@@H]1[C@@H]2[C@@H](O)C[C@]2(C)[C@@H](C(=O)CO)CC[C@@H]12", "note": "[5α-dihydro-corticosterone]", "values": [{"measurement": "11β-HSD1 Dehydrogenase", "setting": "[1]", "value": "Potent Inhibitor"}, {"measurement": "11β-HSD2 Dehydrogenase", "setting": "[3]", "value": "Potent Inhibitor"}, {"measurement": "11β-HSD1 Reductase", "setting": "[2]", "value": "No inhibition"}]}, {"compound": "C[C@]12CC[C@H](O)C[C@@H]1CC[C@@H]1[C@@H]2[C@@H](O)C[C@]2(C=O)[C@@H](C(=O)CO)CC[C@@H]12", "note": "[3α,5α-reduced aldosterone]", "values": [{"measurement": "11β-HSD1 Dehydrogenase", "setting": "[1]", "value": "Moderate Inhibitor"}, {"measurement": "11β-HSD2 Dehydrogenase", "setting": "[3]", "value": "Potent Inhibitor"}, {"measurement": "11β-HSD1 Reductase", "setting": "[2]", "value": "No Inhibition"}]}, {"compound": "CC(=O)[C@H]1CC[C@@H]2[C@@H]3CCC4=CC(=O)CC[C@]4(C)[C@@H]3[C@@H](O)C[C@]12C", "note": "[11β-OH-progesterone]", "values": [{"measurement": "11β-HSD1 Dehydrogenase", "setting": "[1]", "value": "Potent Inhibitor (Non-Selective)"}, {"measurement": "11β-HSD1 Reductase", "setting": "[2]", "value": "No Inhibition"}]}, {"compound": "C[C@]12CC[C@H](O)C[C@@H]1CC[C@@H]1[C@@H]2[C@@H](O)C[C@]2(C)[C@@H](O)CC[C@@H]12", "note": "[3α,5α-reduced-11β-OH-testosterone]", "values": [{"measurement": "11β-HSD1 Dehydrogenase", "setting": "[1]", "value": "Potent Inhibitor (Non-Selective)"}, {"measurement": "11β-HSD2 Dehydrogenase", "setting": "[3]", "value": "Potent Inhibitor (Non-Selective)"}, {"measurement": "11β-HSD1 Reductase", "setting": "[2]", "value": "No Inhibition"}]}, {"compound": "C[C@]12CC[C@H](O)C[C@H]1CC[C@@H]1[C@H]2[C@@H](O)C[C@]2(C)C(=O)CC[C@H]12", "note": "[3α,5α-reduced-11β-OH-androstenedione]", "values": [{"measurement": "11β-HSD1 Dehydrogenase", "setting": "[1]", "value": "Moderate Inhibitor"}, {"measurement": "11β-HSD2 Dehydrogenase", "setting": "[3]", "value": "Potent Inhibitor (Non-Selective)"}, {"measurement": "11β-HSD1 Reductase", "setting": "[2]", "value": "No Inhibition"}]}, {"compound": "C[C@]12C[C@H](O)[C@@H]3[C@@H](CCC4=CC(=O)CC[C@@]43C)[C@H]1CC[C@@H]2O", "note": "[11β-OH-testosterone]", "values": [{"measurement": "11β-HSD1 Dehydrogenase", "setting": "[1]", "value": "Inhibitor (Non-Selective)"}, {"measurement": "11β-HSD2 Dehydrogenase", "setting": "[3]", "value": "Inhibitor (Non-Selective)"}, {"measurement": "11β-HSD1 Reductase", "setting": "[2]", "value": "No Inhibition"}]}, {"compound": "chenodeoxycholic acid", "values": [{"measurement": "11β-HSD1 Dehydrogenase", "setting": "[1]", "value": "Selective inhibitor"}, {"measurement": "11β-HSD2 Dehydrogenase", "setting": "[3]", "value": "No Inhibition"}, {"measurement": "11β-HSD1 Reductase", "setting": "[2]", "value": "No Inhibition"}]}]}
